Assay [1] concerns the target CbTan1 (Clostridium butyricum, UniProt C4IC90).
In assay [2] the target is CbTan2 (Clostridium butyricum, UniProt A0A6M0U600).
CbTan2, sequence (A0A6M0U600 1-490 limits assumed): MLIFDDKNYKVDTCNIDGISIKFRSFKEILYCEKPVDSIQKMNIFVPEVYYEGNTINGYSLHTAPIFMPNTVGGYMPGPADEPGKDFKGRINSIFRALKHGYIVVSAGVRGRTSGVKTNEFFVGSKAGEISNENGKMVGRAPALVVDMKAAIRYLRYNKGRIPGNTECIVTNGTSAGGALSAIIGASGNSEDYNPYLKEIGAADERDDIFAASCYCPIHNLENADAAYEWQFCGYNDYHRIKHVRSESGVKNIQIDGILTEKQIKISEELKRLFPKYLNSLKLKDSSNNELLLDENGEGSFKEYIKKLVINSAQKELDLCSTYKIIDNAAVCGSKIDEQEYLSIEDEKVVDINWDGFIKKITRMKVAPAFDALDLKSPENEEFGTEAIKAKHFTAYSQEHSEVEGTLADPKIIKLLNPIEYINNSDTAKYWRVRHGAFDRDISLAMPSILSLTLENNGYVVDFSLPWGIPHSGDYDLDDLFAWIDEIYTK

CbTan1, sequence (C4IC90 25-633 limits assumed): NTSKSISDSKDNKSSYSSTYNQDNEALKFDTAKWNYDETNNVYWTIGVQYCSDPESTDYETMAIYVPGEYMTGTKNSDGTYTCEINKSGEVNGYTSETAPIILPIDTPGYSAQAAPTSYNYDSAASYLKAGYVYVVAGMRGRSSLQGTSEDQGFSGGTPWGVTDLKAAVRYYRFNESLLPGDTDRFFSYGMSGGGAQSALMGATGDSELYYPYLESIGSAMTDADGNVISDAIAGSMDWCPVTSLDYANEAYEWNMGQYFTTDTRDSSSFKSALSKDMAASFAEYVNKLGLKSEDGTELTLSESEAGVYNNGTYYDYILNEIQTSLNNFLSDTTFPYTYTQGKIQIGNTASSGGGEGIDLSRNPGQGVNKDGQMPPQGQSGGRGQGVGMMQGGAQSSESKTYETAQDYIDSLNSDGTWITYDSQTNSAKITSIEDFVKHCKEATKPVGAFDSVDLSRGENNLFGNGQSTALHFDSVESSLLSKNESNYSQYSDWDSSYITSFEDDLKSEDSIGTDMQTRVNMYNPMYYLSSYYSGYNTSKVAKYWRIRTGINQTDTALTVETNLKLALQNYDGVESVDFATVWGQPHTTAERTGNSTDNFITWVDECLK

In the case of `O=C(O[C@@H]1Cc2c(O)cc(O)cc2O[C@@H]1c1cc(O)c(O)c(O)c1)c1cc(O)c(O)c(O)c1` [EGCG, epigallocatechin gallate], the “K i (mM) ^a” value in assay [1] amounted to 1.11 ± 0.54 mM; in assay [2] it was 1.92 ± 0.59 mM.
Taken in the same sequence, the figures for `O=C(O[C@@H]1O[C@H](CO)[C@@H](O)[C@H](O)[C@H]1O)c1cc(O)c(O)c(O)c1` [GG, β-glucogallin] were 35.9 ± 6.77 mM and 8.51 ± 2.39 mM.
For the compound `COC(=O)c1cc(O)c(O)c(O)c1` [MG, methyl gallate], in assay [2], the “K i (mM) ^a” value came out at 44.0 ± 6.42 mM.

The values are drawn from paper PMC11571031 (Protein Science : A Publication of the Protein Society, 2024).
